Experimental data published in article PMC7176092, “Development of the first in vivo GPR17 ligand through an iterative drug discovery pipeline: A novel disease-modifying strategy for multiple sclerosis” (PLoS ONE, 2020).
Values joined by “and” are separate entries in the source; they are usually repeats but may differ in a detail not shown here. Equal values may be shown once. Read-outs that look alike come from different tables or passages of the source.

What was measured:
CysLT2 = molecular target: T1, CysLT2 (Homo sapiens, UniProt Q9NS75); test: Binding assay CysLT2; conditions: 100 nM
T1 construct: Eurofins Cerep (external service)
T1 sequence (Q9NS75 1-346): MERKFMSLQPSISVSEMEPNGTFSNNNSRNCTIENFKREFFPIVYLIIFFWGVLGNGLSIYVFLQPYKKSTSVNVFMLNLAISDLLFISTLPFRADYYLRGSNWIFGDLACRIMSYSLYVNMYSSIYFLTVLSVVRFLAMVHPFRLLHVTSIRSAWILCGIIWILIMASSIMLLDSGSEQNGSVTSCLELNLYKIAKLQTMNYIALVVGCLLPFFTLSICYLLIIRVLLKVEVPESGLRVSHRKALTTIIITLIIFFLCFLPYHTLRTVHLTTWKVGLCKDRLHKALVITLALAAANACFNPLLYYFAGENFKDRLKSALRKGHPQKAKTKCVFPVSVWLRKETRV

CXCR4 = CXCR4 (Homo sapiens, UniProt P61073); test: Cellular functional assay CXCR4
[1] = In vivo mouse DMPK study, single 1 mg/kg subcutaneous dose
Procedure: In vivo DMPK studies were performed as an external service by Aptuit (Verona, Italy) according to standard procedures.
Two compounds were tested in a single dose pharmacokinetic (PK) study in mouse, in which a 1 mg/kg single dose solution (15% Ethanol, 85% PEG400) was administered by subcutaneous injection to naïve CD1 male mice from accredited supplier (n = 3), weighed prior to dosing. Blood samples were collected for 8 time-points (0.25, 0.50, 1, 2, 4, 6, 8, 24 hours).
Plasma samples were prepared and diluted according standard in-house procedures and stored at approximately -20°C, pending analysis. Briefly, blood samples were collected into tubes containing anticoagulant (K3EDTA), stored on ice and centrifuged to prepare plasma within 2 hours of collection. Plasma samples were diluted in Hepes Buffer and deproteinised using CH3CN containing rolipram as internal reference compound for positive ion mode, according standard procedure (20 ng/ml). After vortexing and centrifugation (3000 rpm per 10 min), sample supernatants were transferred in 96 well plate and diluted with water for analysis.
Blood concentrations of the tested compounds and their metabolites were detected through Liquid Chromatography-tandem Mass Spectrometry (QTRAP® 4000 LC-MS/MS System, Sciex). The results for each test compound in plasma were subjected to non-compartmental PK analysis using WinNonlin Phoenix v.6.3 for generation of appropriate PK parameters, reported along with graphical representation of the mean plasma concentration profiles over time.
At 24 hours, animals were sacrificed, and brains were collected and processed for measuring compound concentrations through mass spectrometry.

ADR1D = molecular target: T2, ADR1D (Homo sapiens, UniProt P25100); test: Binding assay ADR1D; conditions: 100 nM
T2 construct: Eurofins Cerep (external service)
T2 sequence (P25100 1-572): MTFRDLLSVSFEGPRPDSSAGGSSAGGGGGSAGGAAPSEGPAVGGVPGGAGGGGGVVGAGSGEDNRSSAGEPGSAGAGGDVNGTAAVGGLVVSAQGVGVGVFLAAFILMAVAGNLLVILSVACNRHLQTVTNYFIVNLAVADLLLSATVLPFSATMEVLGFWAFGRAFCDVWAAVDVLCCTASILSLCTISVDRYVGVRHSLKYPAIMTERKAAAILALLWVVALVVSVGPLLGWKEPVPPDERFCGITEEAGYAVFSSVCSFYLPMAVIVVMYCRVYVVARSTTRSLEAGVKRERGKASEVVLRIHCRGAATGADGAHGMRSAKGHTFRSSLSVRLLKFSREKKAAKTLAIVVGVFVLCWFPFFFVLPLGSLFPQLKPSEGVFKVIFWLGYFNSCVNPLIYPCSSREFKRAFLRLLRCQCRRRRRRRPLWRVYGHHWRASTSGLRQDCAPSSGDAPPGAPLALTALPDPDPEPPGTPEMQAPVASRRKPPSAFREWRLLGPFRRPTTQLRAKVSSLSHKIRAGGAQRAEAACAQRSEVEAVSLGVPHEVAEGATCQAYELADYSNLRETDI

CCR1 = molecular target: T3, CCR1 (Homo sapiens, UniProt P32246); test: Binding assay CCR1; conditions: 100 nM
T3 construct: Eurofins Cerep (external service)
T3 sequence (P32246 1-355): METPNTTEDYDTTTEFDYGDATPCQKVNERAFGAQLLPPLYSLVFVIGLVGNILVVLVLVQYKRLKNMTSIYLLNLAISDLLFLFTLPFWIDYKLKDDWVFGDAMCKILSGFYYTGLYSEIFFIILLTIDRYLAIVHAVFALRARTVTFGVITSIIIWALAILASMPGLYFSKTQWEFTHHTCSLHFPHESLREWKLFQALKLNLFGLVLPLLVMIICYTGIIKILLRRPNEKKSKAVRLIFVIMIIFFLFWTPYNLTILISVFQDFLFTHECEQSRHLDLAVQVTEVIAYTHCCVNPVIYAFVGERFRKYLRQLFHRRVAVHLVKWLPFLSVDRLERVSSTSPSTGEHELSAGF

[2] = mean of 2, read-out: % Of control specific binding, Mean
[3] = read-out: % Inhibition of control specific binding
[4] = single replicates 1 and 2, 0.1 µM
[5] = single replicates 1 and 2, read-out: % Of control specific binding
[6] = mouse, sc, plasma, 1 mg/kg s.c. single dose, CD1 male mice

CXCR4, sequence (P61073 whole entry): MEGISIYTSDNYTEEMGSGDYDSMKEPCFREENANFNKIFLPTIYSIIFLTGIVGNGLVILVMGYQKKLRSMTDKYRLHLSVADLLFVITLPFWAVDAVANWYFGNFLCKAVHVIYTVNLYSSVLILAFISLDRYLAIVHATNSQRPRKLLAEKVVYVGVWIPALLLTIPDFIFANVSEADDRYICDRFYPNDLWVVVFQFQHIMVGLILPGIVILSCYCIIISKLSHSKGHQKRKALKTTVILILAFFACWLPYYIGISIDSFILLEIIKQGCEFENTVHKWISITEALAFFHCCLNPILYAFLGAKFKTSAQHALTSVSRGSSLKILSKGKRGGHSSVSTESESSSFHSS

- remaining activity at 0.1 µM (CysLT2; [2]): 101%
- inhibition at 0.1 µM (CysLT2; [3]): -1%
- % Of control specific binding (CysLT2; [4]): 103.4%
- remaining activity at 0.1 µM (CysLT2; [5]): 97.9%
- Agonist Response (% of Control) (CXCR4; antagonist effect, 100 nM, single replicates 1st and 2nd, 0.1 µM): 70.8%
- inhibition at 0.1 µM (CXCR4; read-out: % Inhibition of control agonist response): 4.4%
- activity at 0.1 µM (CXCR4; read-out: Agonist Response (% of Control), Mean, antagonist effect, 100 nM, mean of 2): 78.2%
- activity at 0.1 µM (CXCR4; read-out: Agonist Response (% of Control), antagonist effect, 100 nM, single replicates 1st and 2nd): 85.6%
- Plasma concentration, individual mice ([1]; 0.50 h, 1 mg/kg s.c., 1 mg/kg): 71.7 ng/mL and 98.3 ng/mL and 30.8 ng/mL
- Plasma concentration, individual mice ([1]; 1.00 h, 1 mg/kg s.c., 1 mg/kg): 14.3 ng/mL and 38.5 ng/mL and 76.3 ng/mL
- Plasma concentration, individual mice ([1]; 2.00 h, 1 mg/kg s.c., 1 mg/kg): 5.6 ng/mL and 10.3 ng/mL and 29.8 ng/mL
- Plasma concentration, individual mice ([1]; 4.00 h, 1 mg/kg s.c., 1 mg/kg): 2.6 ng/mL
- concentration at 0.5 h ([1]; male, CD1, mouse, plasma, sc, 1 mg/kg, 0.50 h, 1 mg/kg s.c., n=3 mice, read-out: Plasma concentration, Mean): 66.9 ng/mL
- concentration at 1 h ([1]; male, CD1, mouse, plasma, sc, 1 mg/kg, 1.00 h, 1 mg/kg s.c., n=3 mice, read-out: Plasma concentration, Mean): 43 ng/mL
- concentration at 2 h ([1]; male, CD1, mouse, plasma, sc, 1 mg/kg, 2.00 h, 1 mg/kg s.c., n=3 mice): 15.2 ng/mL
- concentration at 4 h ([1]; male, CD1, mouse, plasma, sc, 1 mg/kg, 4.00 h, 1 mg/kg s.c., read-out: Plasma concentration, Mean): 2.8 ng/mL
- concentration at 4 h ([1]; male, CD1, mouse, plasma, sc, 1 mg/kg, 4.00 h, 1 mg/kg s.c., read-out: Plasma concentration, individual mice): 2.9 ng/mL
- concentration at 4 h ([1]; male, CD1, mouse, plasma, sc, 1 mg/kg, plasma, 1 mg/kg s.c. single dose, CD1 male mice, read-out: Clast): 4.81 ng/mL
- AUC(0-t) [1, 6]: 85.8 ng·h/mL
- Cmax [1, 6]: 72.3 ng/mL
- Tmax [1, 6]: 30 min
- half-life [1, 6]: 65.4 min
- Metabolites found in vivo ([1]; plasma after s.c. administration in mice): no detectable metabolites
- Tlast ([1]; plasma, 1 mg/kg s.c. single dose, CD1 male mice): 4.00 h
- remaining activity at 0.1 µM (ADR1D; [2]): 101%
- inhibition at 0.1 µM (ADR1D; [3]): -1%
- % Of control specific binding (ADR1D; [4]): 90.2% and 111.5%
- remaining activity at 0.1 µM (CCR1; [2]): 108%
- inhibition at 0.1 µM (CCR1; [3]): -8%
- % Of control specific binding (CCR1; [4]): 109%
- remaining activity at 0.1 µM (CCR1; [5]): 108%
Compound: Cc1ccc(-c2nnc(SCC(=O)Nc3nccs3)[nH]2)cc1 [Compound 9]
